Laboratory results reported in ChEMBL document CHEMBL3217522, “New substituted aryl esters and aryl amides of 3,4-dihydro-2H-1,2,4-benzothiadiazine 1,1-dioxides as positive allosteric modulators of AMPA receptors” (Medchemcomm, 2011).

Assays:
[1] = biological target: Glutamate receptor ionotropic, AMPA (Rattus norvegicus, UniProt P19490+P19491+P19492+P19493); experiment: Positive allosteric modulation of AMPA receptor in embryonic rat brain cells assessed as potentiation of AMPA-induced membrane depolarization after 3 mins by fluorescence assay; format: cell-based
[2] = biological target: T1, Glutamate receptor ionotropic, AMPA (Rattus norvegicus) (UniProt P19491+P19492+P19493+P19490); experiment: Positive allosteric modulation of AMPA receptor in embryonic rat brain cells assessed as potentiation of membrane depolarization after 3 mins by fluorescence assay relative to AMPA; format: cell-based
[3] = biological target: T1, Glutamate receptor ionotropic, AMPA (Rattus norvegicus); experiment: Positive allosteric modulation of AMPA receptor in embryonic rat brain cells assessed as concentration required for 2-fold increase in AMPA-induced membrane depolarization after 3 mins by fluorescence assay; format: cell-based
[4] = Stability of the compound in PBS at pH 7.4 at 1 mM after 24 hrs at 25 degC HPLC analysis; format: physicochemical; settings: buffer, pH 7.4, 24 h, 1000 µM
[5] = Stability of the compound in PBS at pH 1 at 1 mM after 24 hrs at 25 degC HPLC analysis; format: physicochemical; settings: buffer, pH 1, 24 h, 1000 µM

Structure (SMILES) | EC50 [1] [µM] | max activation [2] [%] | Activity [3] [µM] | Stability [4] | Stability [5]
COc1ccccc1OC(=O)c1ccc2c(c1)S(=O)(=O)NCN2C | 7.27 | 410 | 6.4 |  | 
CCN1CNS(=O)(=O)c2cc(C(=O)OCCc3ccccc3)ccc21 |  | < 200 | > 100 |  | 
CCN1CNS(=O)(=O)c2cc(C(=O)Oc3cccc(OC)c3)ccc21 |  | 200 | > 35 |  | 
CCCc1ccccc1OC(=O)c1ccc2c(c1)S(=O)(=O)NCN2CC |  | < 200 | > 100 |  | 
CCN1CNS(=O)(=O)c2cc(C(=O)Oc3cccc(C)c3)ccc21 |  | < 200 | > 100 |  | 
CCN1CNS(=O)(=O)c2cc(C(=O)Oc3ccccc3C)ccc21 | 3.91 | 330 | 3.48 |  | 
CCOc1ccccc1OC(=O)c1ccc2c(c1)S(=O)(=O)NCN2C |  | > 360 | 7.08 |  | 
CCCc1ccc(OC(=O)c2ccc3c(c2)S(=O)(=O)NCN3CC)cc1 |  | < 200 | > 100 |  | 
CN1CNS(=O)(=O)c2cc(C(=O)Oc3ccccc3OCc3ccccc3)ccc21 |  | < 200 | > 100 |  | 
CN1CNS(=O)(=O)c2cc(C(=O)Oc3ccccc3)ccc21 | 3.65 | 550 | 3.66 | Stable | Stable
CCc1ccccc1OC(=O)c1ccc2c(c1)S(=O)(=O)NCN2C |  | < 200 | > 100 |  | 
CCN1CNS(=O)(=O)c2cc(C(=O)OCc3ccccc3)ccc21 |  | < 200 | > 100 |  | 
CCN1CNS(=O)(=O)c2cc(C(=O)Oc3ccccc3OC)ccc21 |  | 380 | 10.6 |  | 
CCOc1ccccc1OC(=O)c1ccc2c(c1)S(=O)(=O)NCN2CC |  | > 270 | 21.6 |  | 
CCN1CNS(=O)(=O)c2cc(C(=O)Oc3cccc(OCc4ccccc4)c3)ccc21 |  | < 200 | > 100 |  | 
CN1CNS(=O)(=O)c2cc(C(=O)N(C)c3ccccc3)ccc21 |  | < 200 | > 100 |  | 
CCN1CNS(=O)(=O)c2cc(C(=O)Oc3ccc(C)cc3)ccc21 |  | < 200 | > 100 |  | 
Cc1cccc(OC(=O)c2ccc3c(c2)S(=O)(=O)NCN3C)c1 |  | < 200 | > 100 |  | 
CCc1ccccc1OC(=O)c1ccc2c(c1)S(=O)(=O)NCN2CC |  | < 200 | > 100 |  | 
CCN1CNS(=O)(=O)c2cc(C(=O)Nc3ccccc3)ccc21 |  | < 200 | > 100 |  | 
CN1CNS(=O)(=O)c2cc(C(=O)Nc3ccccc3)ccc21 |  | < 200 | > 100 |  | 
COc1ccccc1OC(=O)c1ccc2c(c1)S(=O)(=O)NCN2 |  | < 200 | > 100 |  | 
CCN1CNS(=O)(=O)c2cc(C(=O)Oc3ccc(OC)cc3)ccc21 |  | < 200 | > 100 |  | 
CCN(C(=O)c1ccc2c(c1)S(=O)(=O)NCN2C)c1ccccc1 |  | < 200 | > 100 |  | 
CCN1CNS(=O)(=O)c2cc(C(=O)Oc3ccccc3OCc3ccccc3)ccc21 |  | < 200 | > 100 |  | 
Cc1ccccc1OC(=O)c1ccc2c(c1)S(=O)(=O)NCN2C | 1.72 | 410 | 0.94 |  | 
